Where two headings read alike, the source gives them in different places.
Assays:
[1] = biological target: DCN1 (DCUND1) protein PONY domain (Homo sapiens (Human), UniProt Q96GG9); test: TR-FRET assay, DCN1 binding with FAM-labeled probe
Procedure, shortened: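 TR-FRET ratio (Tb-DCN1 to FAM-probe) read at 1, 5 and 24 hrs after compound addition. Protein: recombinant PONY domain from E. coli, biotinylated and coupled to streptavidin terbium. Either 5 nM DCN1 with 20 nM FAM-probe, or 0.31 nM DCN1 with 100 nM FAM-labelled plus 800 nM unlabelled probe.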

[2] = tested on: Cullin-3 (CUL3) neddylation; test: AlphaLISA assay for Cullin-3 (CUL3) neddylation in TF 1 cells; assay type: cell-based; conditions: Homo sapiens, 3 hours treatment
Procedure, shortened: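 Neddylated CUL3 was quantified by AlphaLISA in lysates of TF 1 cells exposed for 3 h to test compound in IMDM without supplements. Percent inhibition set between vehicle and 1 μM DI-1548 positive control; IC50 derived by Hill-equation fitting of dose-response curves.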

[3] = 24 hr after treatment with compound, read-out: TR FRET IC50 24 hr
[4] = TR FRET IC50 1 hr (nM), 1 hr after treatment with compound
[5] = read-out: TR FRET IC50 1 hr, 1 hr after treatment with compound

DCN1 (DCUND1) protein PONY domain, sequence (Q96GG9 60-248): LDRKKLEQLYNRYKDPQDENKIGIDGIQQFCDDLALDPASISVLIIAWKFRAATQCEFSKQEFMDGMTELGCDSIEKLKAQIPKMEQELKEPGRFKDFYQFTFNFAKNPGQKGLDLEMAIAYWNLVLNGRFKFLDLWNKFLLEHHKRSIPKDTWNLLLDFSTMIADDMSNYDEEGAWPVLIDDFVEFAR

SMILES	IC50 [1, 3] [nM]	IC50 [1, 4] [nM]	IC50 ([2]; TF-1, 3 h) [nM]	IC50 [1, 5] [nM]	IC50 [2] [nM]
CCCn1nc(C(=O)N(CC#N)C2CC2)c2c1N(CC)C(=O)[C@@H](NC(=O)c1cccc(C(F)(F)F)c1)[C@H]2C1CC1 [Compound I-427]	200 to 1000	1000 to 3000	100 to 1000	–	–
CCCn1nc(C(=O)N2CCC[C@H]2C#N)c2c1N(CC)C(=O)[C@@H](NC(=O)c1cccc(C(F)(F)F)c1)[C@H]2c1ccc(F)cc1 [Compound I-428]	≤ 200	200 to 1000	≤ 100	–	–
CCN1C(=O)[C@@H](NC(=O)c2cccc(C(F)(F)F)c2)[C@@H](C2CC2)c2c(C(=O)N(C)[C@H](C#N)CCN(C)C3COC3)nn(C3CCOCC3)c21 [Compound I-429]	≤ 200	–	≤ 100	≤ 200	–
CCN1C(=O)[C@@H](NC(=O)c2ccn(C(F)F)n2)[C@@H](C2CC2)c2c(C(=O)N3[C@H](C#N)C[C@H]4C[C@H]43)nn(C3CCOCC3)c21 [Compound I-432]	≤ 200	200 to 1000	100 to 1000	–	–
CCN1C(=O)[C@@H](NC(=O)c2cccc(C(F)(F)F)c2)[C@@H](C2CC2)c2c(C(=O)N3CCC=C3C#N)nn(C3CCOCC3)c21 [Compound I-437]	≤ 200	1000 to 3000	> 1000	–	–
CCN1C(=O)[C@@H](NC(=O)c2cccc(C(F)(F)F)c2)[C@@H](C2CC2)c2c(C(=O)N3CCS(=O)(=O)C[C@@H]3C#N)nn(-c3ccccc3)c21 [Compound I-438, N-((4S,5S)-3-((S)-3-cyano-1,1-dioxidothiomorpholine-4-carbonyl)-4-cyclopropyl-7-ethyl-6-oxo-1-phenyl-4,5,6,7-tetrahydro-1H-pyrazolo[3,4-b]pyridin-5-yl)-3-(trifluoromethyl)benzamide]	≤ 200	–	≤ 100	≤ 200	–
CCN1C(=O)[C@@H](NC(=O)c2cccc(C(F)(F)F)c2)[C@@H](c2ccc(F)cn2)c2c([C@@H](C)NC#N)nn(-c3ccccc3)c21 [Compound I-439]	≤ 200	–	≤ 100	≤ 200	–
CCN1C(=O)[C@@H](NC(=O)c2cccc(C(F)(F)F)c2)[C@@H](C2CC2)c2c(C(=O)N3[C@H](C#N)C[C@@H]4C[C@@H]43)nn(C3CCOCC3)c21 [Compound I-441]	200 to 1000	1000 to 3000	> 1000	–	–
CCN1C(=O)[C@@H](NC(=O)c2cccc(C(F)(F)F)c2)[C@@H](C2CC2)c2c(C(=O)N3[C@@H]4C[C@@H]4C[C@@H]3C#N)nn(C3CCOCC3)c21 [Compound I-442]	200 to 1000	1000 to 3000	> 1000	–	–
CCN1C(=O)[C@@H](NC(=O)c2cccc3c2OCC3)[C@@H](C2CC2)c2c(C(=O)N3[C@H](C#N)C[C@H]4C[C@H]43)nn(C3CCOCC3)c21 [Compound I-445]	≤ 200	–	–	≤ 200	≤ 100
CCN1C(=O)[C@@H](NC(=O)c2cccc3[nH]cnc23)[C@@H](C2CC2)c2c(C(=O)N3[C@H](C#N)C[C@H]4C[C@H]43)nn(C3CCOCC3)c21 [Compound I-446]	1000 to 3000	1000 to 3000	> 1000	–	–
CCN1C(=O)[C@@H](NC(=O)c2cccc(C(F)(F)F)c2)[C@@H](c2ccc(F)cc2)c2c(C(=O)N3[C@H](C#N)C[C@@H]4C[C@@H]43)nn(-c3ccccc3)c21 [Compound I-450]	1000 to 3000	1000 to 3000	100 to 1000	–	–
CCN1C(=O)[C@@H](NC(=O)c2nccc(C(F)(F)F)n2)[C@H](c2ccc(F)cc2)c2c(CNC(=O)CC#N)nn(-c3ccccc3)c21 [Compound I-452, N-((4R,5S)-3-((2-cyanoacetamido)methyl)-7-ethyl-4-(4-fluorophenyl)-6-oxo-1-phenyl-4,5,6,7-tetrahydro-1H-pyrazolo[3,4-b]pyridin-5-yl)-4-(trifluoromethyl)pyrimidine-2-carboxamide]	1000 to 3000	1000 to 3000	> 1000	–	–
CCN1C(=O)[C@H](NC(=O)c2cccc(C(F)(F)F)c2)[C@H](c2ccc(F)cc2)c2c(C(=O)N3CCNC[C@H]3C#N)nn(-c3ccccc3)c21 [Compound I-453]	200 to 1000	1000 to 3000	> 1000	–	–
